The values below come from patent publication US20230416243A1, “Process for Preparing Heterocyclic Methanone Compounds and AZA-Bicyclo Intermediates Thereof” (ACTINOGEN MEDICAL LIMITED, priority 2020, published 2023).

Structures are written as SMILES.

A short description of the series: Solubility test in water. Type of series: physicochemical. The note with it: water at pH 4. The method, then:
A saponification of A4 in aqueous conditions was conducted.

As for `O=C(O)c1csc(-c2cn[nH]c2)c1` [Compound A5], the Solubility in water result is “soluble”.
